According to patent US8557763B2, “Synthetic peptides that enhance tight junction permeability” (Alba Therapeutics Corporation, priority 2007, dated 2013):
Where no end group is shown, it is not given here. [ ]: non-standard residue; d: D form. AllylGly = C=CC[C@H](N)C(=O)O

Key:
CaCo2 monolayers [1] = experiment: Trans Epithelial Electric Resistance (TEER) across CaCo2 monolayers; type: cell-based; design: key to Reduced TEER: + indicates an enhancement of the permeability of the tight junctions were observed; − indicates no enhancement of permeability was observed; conditions: CaCo2 monolayers
Excerpt: (§1) Agonists of tight junctions can be identified by their ability to enhance the flux of compounds (e.g. ions, Lucifer Yellow) through a cell monolayer that comprises tight junctions; or by their ability to reduce TEER across a cell monolayer that comprises tight junctions. Treatment of CaCo2 monolayers with peptide FCIGRL (SEQ ID NO: 1) led to a 51-fold enhancement of Lucifer Yellow permeability through CaCo2 monolayers compared to vehicle alone.
Treatment of CaCo2 monolayers with peptide FCIGRL led to a 16-fold decrease in TEER across CaCo2 monolayers compared to vehicle alone.
(§2) Tight junction agonists can be identified and tested using the following method:
(§3) Determination of TEER and Lucifer Yellow Flux
(§4) Prepare Modified Hank's Balanced Salt Solution (MHBSS) by obtaining 1 L bottle of HBSS removing 10 ml of HBSS and replacing it with 10 ml HEPES buffer pH 7.0. Adjust pH to 7.4±0.1 using concentrated NaOH (10N).
(§5) Remove CaCo-2 cells from incubator, grown on 12-well, 3.0 μM, polycarbonate Transwell® filters (Corning) and record passage#, date cells seeded and age in days.
(§6) Aspirate cell culture medium from both the apical (AP) and basolateral (BL) compartments, replacing with 0.5 ml and 1.5 ml of MHBSS, respectively. Incubate cells at 37° C. for 30 minutes.
Using the MilliCell®-ERS instrument (Millipore), measure and record the transepithelial electrical resistance (TEER) across each filter and record.
(§7) Aspirate solution from the apical compartment of each filter (n=3 per condition) and replace with 0.5 ml of control and test solutions containing Lucifer Yellow and test compound if appropriate.
(§8) Place all plates into incubator set at 37° C. (±0.2), 50 RPM (±5) for a total of 180 minutes.
At t=30, 60, 120 and 180 minutes, measure and record the transepithelial electrical resistance (TEER) across each filter using the MilliCell-ERS instrument.
(§9) Cells: CaCo-2 cells passage 40-60 grown on Transwell® plates for 21-28 days
(§10) Culture Medium: DMEM supplemented with 10% fetal bovine serum, 1% NEAA, 1% Penn/Strep
(§11) Buffers: Hank's Balanced Salt Solution (HBSS) without calcium and magnesium
(§12) Flasks: 100×20 mm Tissue culture dish Falcon.
(§13) Plates: 12 well polycarbonate Transwell® filters; 0.3 uM pore size

CaCo2 monolayers [2] = experiment: Lucifer Yellow (LY) permeability assay through CaCo2 monolayers; type: cell-based; design: key to Enhanced LY permeability: + indicates an enhancement of the permeability of the tight junctions were observed; − indicates no enhancement of permeability was observed; conditions: CaCo2 monolayers, Lucifer Yellow flux
Excerpt: as §1, §2, §3, §4, §5, §6, §7, §8
At t=60, 120 and 180 minutes remove […] from each basolateral compartment and place it in a 96-well plate for Lucifer Yellow analysis, replace with 100 μl of MHBSS.
Make a Lucifer Yellow standard curve with the following dilutions (7500 μM, 3750 μM, 750 μM, 375 μM, 37.5 μM, 7.5 μM, 3.75 μM, 0.75 μM) and pipette 100 μL of each into a 96-well plate except for the first three standards mentioned above which require a 1:10 dilutions prior to transferring to the 96-well plate.
Harvest the remaining start solutions and what is left in each apical compartment into 1.5 ml vials. Freeze at −20° C. for future analysis.
Analyze each 96-well plate in a Tecan Spectra Fluor Plus using Magellan at 485 and 535 nm.
as §9, §10, §11, §12, §13

Substance | Reduced TEER (CaCo2 monolayers [1]) | Enhanced LY permeability (CaCo2 monolayers [2])
35 (F[AllylGly]RGRL-NH2; N-terminus assumed; SMILES C=CC[C@H](NC(=O)[C@@H](N)Cc1ccccc1)C(=O)N[C@@H](CCCNC(=N)N)C(=O)NCC(=O)N[C@@H](CCCNC(=N)N)C(=O)N[C@@H](CC(C)C)C(N)=O) [compound 35] | + | +
53 (F[AllylGly]ISRL-NH2; N-terminus assumed; SMILES C=CC[C@H](NC(=O)[C@@H](N)Cc1ccccc1)C(=O)N[C@H](C(=O)N[C@@H](CO)C(=O)N[C@@H](CCCNC(=N)N)C(=O)N[C@@H](CC(C)C)C(N)=O)[C@@H](C)CC) [compound 53] | + | +
7 (L[AllylGly]IGRL-NH2; N-terminus assumed; SMILES C=CC[C@H](NC(=O)[C@@H](N)CC(C)C)C(=O)N[C@H](C(=O)NCC(=O)N[C@@H](CCCNC(=N)N)C(=O)N[C@@H](CC(C)C)C(N)=O)[C@@H](C)CC) [compound 7] | − | +
16 (K[AllylGly]IGRL-NH2; N-terminus assumed; SMILES C=CC[C@H](NC(=O)[C@@H](N)CCCCN)C(=O)N[C@H](C(=O)NCC(=O)N[C@@H](CCCNC(=N)N)C(=O)N[C@@H](CC(C)C)C(N)=O)[C@@H](C)CC) [compound 16] | − | −
36 (F[AllylGly]KGRL-NH2; N-terminus assumed; SMILES C=CC[C@H](NC(=O)[C@@H](N)Cc1ccccc1)C(=O)N[C@@H](CCCCN)C(=O)NCC(=O)N[C@@H](CCCNC(=N)N)C(=O)N[C@@H](CC(C)C)C(N)=O) [compound 36] | + | +
88 (F[AllylGly]IGRW-NH2; N-terminus assumed; SMILES C=CC[C@H](NC(=O)[C@@H](N)Cc1ccccc1)C(=O)N[C@H](C(=O)NCC(=O)N[C@@H](CCCNC(=N)N)C(=O)N[C@@H](Cc1c[nH]c2ccccc12)C(N)=O)[C@@H](C)CC) [compound 88] | + | +
10 (E[AllylGly]IGRL-NH2; N-terminus assumed; SMILES C=CC[C@H](NC(=O)[C@@H](N)CCC(=O)O)C(=O)N[C@H](C(=O)NCC(=O)N[C@@H](CCCNC(=N)N)C(=O)N[C@@H](CC(C)C)C(N)=O)[C@@H](C)CC) [compound 10] | − | −
86 (F[AllylGly]IGRK-NH2; N-terminus assumed; SMILES C=CC[C@H](NC(=O)[C@@H](N)Cc1ccccc1)C(=O)N[C@H](C(=O)NCC(=O)N[C@@H](CCCNC(=N)N)C(=O)N[C@@H](CCCCN)C(N)=O)[C@@H](C)CC) [compound 86] | − | +
3 (F[AllylGly]IGR-NH2; N-terminus assumed; SMILES C=CC[C@H](NC(=O)[C@@H](N)Cc1ccccc1)C(=O)N[C@H](C(=O)NCC(=O)N[C@@H](CCCNC(=N)N)C(N)=O)[C@@H](C)CC) [compound 3] | − | −
15 (W[AllylGly]IGRL-NH2; N-terminus assumed; SMILES C=CC[C@H](NC(=O)[C@@H](N)Cc1c[nH]c2ccccc12)C(=O)N[C@H](C(=O)NCC(=O)N[C@@H](CCCNC(=N)N)C(=O)N[C@@H](CC(C)C)C(N)=O)[C@@H](C)CC) [compound 15] | − | +
79 (F[AllylGly]IGRQ-NH2; N-terminus assumed; SMILES C=CC[C@H](NC(=O)[C@@H](N)Cc1ccccc1)C(=O)N[C@H](C(=O)NCC(=O)N[C@@H](CCCNC(=N)N)C(=O)N[C@@H](CCC(N)=O)C(N)=O)[C@@H](C)CC) [compound 79] | − | −
2 (F[AllylGly]IGRL) [compound 2] | + | +
19 (P[AllylGly]IGRL-NH2; N-terminus assumed; SMILES C=CC[C@H](NC(=O)[C@@H]1CCCN1)C(=O)N[C@H](C(=O)NCC(=O)N[C@@H](CCCNC(=N)N)C(=O)N[C@@H](CC(C)C)C(N)=O)[C@@H](C)CC) [compound 19] | − | −
42 (F[AllylGly]IARL-NH2; N-terminus assumed; SMILES C=CC[C@H](NC(=O)[C@@H](N)Cc1ccccc1)C(=O)N[C@H](C(=O)N[C@@H](C)C(=O)N[C@@H](CCCNC(=N)N)C(=O)N[C@@H](CC(C)C)C(N)=O)[C@@H](C)CC) [compound 42] | + | +
28 (F[AllylGly]VGRL-NH2; N-terminus assumed; SMILES C=CC[C@H](NC(=O)[C@@H](N)Cc1ccccc1)C(=O)N[C@H](C(=O)NCC(=O)N[C@@H](CCCNC(=N)N)C(=O)N[C@@H](CC(C)C)C(N)=O)C(C)C) [compound 28] | − | −
82 (F[AllylGly]IGRY-NH2; N-terminus assumed; SMILES C=CC[C@H](NC(=O)[C@@H](N)Cc1ccccc1)C(=O)N[C@H](C(=O)NCC(=O)N[C@@H](CCCNC(=N)N)C(=O)N[C@@H](Cc1ccc(O)cc1)C(N)=O)[C@@H](C)CC) [compound 82] | + | +
73 (F[AllylGly]IGRH-NH2; N-terminus assumed; SMILES C=CC[C@H](NC(=O)[C@@H](N)Cc1ccccc1)C(=O)N[C@H](C(=O)NCC(=O)N[C@@H](CCCNC(=N)N)C(=O)N[C@@H](Cc1c[nH]cn1)C(N)=O)[C@@H](C)CC) [compound 73] | + | +
52 (F[AllylGly]INRL-NH2; N-terminus assumed; SMILES C=CC[C@H](NC(=O)[C@@H](N)Cc1ccccc1)C(=O)N[C@H](C(=O)N[C@@H](CC(N)=O)C(=O)N[C@@H](CCCNC(=N)N)C(=O)N[C@@H](CC(C)C)C(N)=O)[C@@H](C)CC) [compound 52] | + | +
32 (F[AllylGly]DGRL-NH2; N-terminus assumed; SMILES C=CC[C@H](NC(=O)[C@@H](N)Cc1ccccc1)C(=O)N[C@@H](CC(=O)O)C(=O)NCC(=O)N[C@@H](CCCNC(=N)N)C(=O)N[C@@H](CC(C)C)C(N)=O) [compound 32] | + | +
72 (F[AllylGly]IGVL-NH2; N-terminus assumed; SMILES C=CC[C@H](NC(=O)[C@@H](N)Cc1ccccc1)C(=O)N[C@H](C(=O)NCC(=O)N[C@H](C(=O)N[C@@H](CC(C)C)C(N)=O)C(C)C)[C@@H](C)CC) [compound 72] | + | −
37 (F[AllylGly]NGRL-NH2; N-terminus assumed; SMILES C=CC[C@H](NC(=O)[C@@H](N)Cc1ccccc1)C(=O)N[C@@H](CC(N)=O)C(=O)NCC(=O)N[C@@H](CCCNC(=N)N)C(=O)N[C@@H](CC(C)C)C(N)=O) [compound 37] | + | +
17 (A[AllylGly]IGRL-NH2; N-terminus assumed; SMILES C=CC[C@H](NC(=O)[C@H](C)N)C(=O)N[C@H](C(=O)NCC(=O)N[C@@H](CCCNC(=N)N)C(=O)N[C@@H](CC(C)C)C(N)=O)[C@@H](C)CC) [compound 17] | − | −
71 (F[AllylGly]IGPL-NH2; N-terminus assumed; SMILES C=CC[C@H](NC(=O)[C@@H](N)Cc1ccccc1)C(=O)N[C@H](C(=O)NCC(=O)N1CCC[C@H]1C(=O)N[C@@H](CC(C)C)C(N)=O)[C@@H](C)CC) [compound 71] | − | +
43 (F[AllylGly]IPRL-NH2; N-terminus assumed; SMILES C=CC[C@H](NC(=O)[C@@H](N)Cc1ccccc1)C(=O)N[C@H](C(=O)N1CCC[C@H]1C(=O)N[C@@H](CCCNC(=N)N)C(=O)N[C@@H](CC(C)C)C(N)=O)[C@@H](C)CC) [compound 43] | − | −
